Source: ChEMBL document CHEMBL1141676, “A three-dimensional pharmacophore model for dipeptidyl peptidase IV inhibitors” (Eur J Med Chem, 2008)

Target: Dipeptidyl peptidase 4 (Homo sapiens, UniProt P27487)
Sequence (P27487 whole entry): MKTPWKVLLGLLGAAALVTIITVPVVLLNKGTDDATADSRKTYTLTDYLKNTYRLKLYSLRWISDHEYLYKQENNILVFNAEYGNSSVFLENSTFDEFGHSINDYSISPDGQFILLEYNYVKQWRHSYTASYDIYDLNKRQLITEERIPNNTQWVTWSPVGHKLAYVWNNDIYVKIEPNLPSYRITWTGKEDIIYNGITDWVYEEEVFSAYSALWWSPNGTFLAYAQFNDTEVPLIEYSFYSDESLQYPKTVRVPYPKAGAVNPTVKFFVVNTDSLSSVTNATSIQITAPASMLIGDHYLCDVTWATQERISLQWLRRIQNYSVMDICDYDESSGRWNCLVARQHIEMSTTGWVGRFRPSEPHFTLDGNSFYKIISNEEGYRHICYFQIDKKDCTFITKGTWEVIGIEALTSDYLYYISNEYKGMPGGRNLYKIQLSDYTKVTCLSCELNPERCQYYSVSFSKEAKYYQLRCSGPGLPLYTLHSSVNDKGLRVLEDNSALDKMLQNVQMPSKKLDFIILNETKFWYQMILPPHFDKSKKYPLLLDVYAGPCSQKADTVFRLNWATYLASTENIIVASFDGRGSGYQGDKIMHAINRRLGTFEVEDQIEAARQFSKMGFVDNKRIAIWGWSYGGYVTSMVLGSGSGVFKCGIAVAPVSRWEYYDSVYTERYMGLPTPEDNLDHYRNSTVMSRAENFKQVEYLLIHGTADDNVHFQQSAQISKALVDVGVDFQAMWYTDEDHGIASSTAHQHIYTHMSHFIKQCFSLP
Description: Inhibition of human DPP4 expressed in baculovirus system

Row | IC50 [µM] | SMILES
1 | 230 | N[C@H](C(=O)N1CCc2ccccc2C1)C1CCCCC1
2 | 390 | N#C[C@@H]1CCCN1C(=O)CN1CCc2ccccc2C1
